Positions of bridges follow the written chain, without caps; N, C: chain ends. Non-standard residues stand in square brackets, D forms with d. Residues, ends and D or L forms follow the SMILES beside them. Phe(4-COOH) = N[C@@H](Cc1ccc(C(=O)O)cc1)C(=O)O; Arg(Me) = CNC(=N)NCCC[C@H](N)C(=O)O; 2Pal = N[C@@H](Cc1ccccn1)C(=O)O; Pra = C#CC[C@H](N)C(=O)O
Legend:
hNav1.5 = hNav1.5 (Homo sapiens, UniProt Q14524); test: cell-based
hNav1.7 = hNav1.7 (Homo sapiens, UniProt Q15858); test: cell-based; details: Nav1.7 Use IC50
Sequence of hNav1.7 (Q15858 whole entry, looked up): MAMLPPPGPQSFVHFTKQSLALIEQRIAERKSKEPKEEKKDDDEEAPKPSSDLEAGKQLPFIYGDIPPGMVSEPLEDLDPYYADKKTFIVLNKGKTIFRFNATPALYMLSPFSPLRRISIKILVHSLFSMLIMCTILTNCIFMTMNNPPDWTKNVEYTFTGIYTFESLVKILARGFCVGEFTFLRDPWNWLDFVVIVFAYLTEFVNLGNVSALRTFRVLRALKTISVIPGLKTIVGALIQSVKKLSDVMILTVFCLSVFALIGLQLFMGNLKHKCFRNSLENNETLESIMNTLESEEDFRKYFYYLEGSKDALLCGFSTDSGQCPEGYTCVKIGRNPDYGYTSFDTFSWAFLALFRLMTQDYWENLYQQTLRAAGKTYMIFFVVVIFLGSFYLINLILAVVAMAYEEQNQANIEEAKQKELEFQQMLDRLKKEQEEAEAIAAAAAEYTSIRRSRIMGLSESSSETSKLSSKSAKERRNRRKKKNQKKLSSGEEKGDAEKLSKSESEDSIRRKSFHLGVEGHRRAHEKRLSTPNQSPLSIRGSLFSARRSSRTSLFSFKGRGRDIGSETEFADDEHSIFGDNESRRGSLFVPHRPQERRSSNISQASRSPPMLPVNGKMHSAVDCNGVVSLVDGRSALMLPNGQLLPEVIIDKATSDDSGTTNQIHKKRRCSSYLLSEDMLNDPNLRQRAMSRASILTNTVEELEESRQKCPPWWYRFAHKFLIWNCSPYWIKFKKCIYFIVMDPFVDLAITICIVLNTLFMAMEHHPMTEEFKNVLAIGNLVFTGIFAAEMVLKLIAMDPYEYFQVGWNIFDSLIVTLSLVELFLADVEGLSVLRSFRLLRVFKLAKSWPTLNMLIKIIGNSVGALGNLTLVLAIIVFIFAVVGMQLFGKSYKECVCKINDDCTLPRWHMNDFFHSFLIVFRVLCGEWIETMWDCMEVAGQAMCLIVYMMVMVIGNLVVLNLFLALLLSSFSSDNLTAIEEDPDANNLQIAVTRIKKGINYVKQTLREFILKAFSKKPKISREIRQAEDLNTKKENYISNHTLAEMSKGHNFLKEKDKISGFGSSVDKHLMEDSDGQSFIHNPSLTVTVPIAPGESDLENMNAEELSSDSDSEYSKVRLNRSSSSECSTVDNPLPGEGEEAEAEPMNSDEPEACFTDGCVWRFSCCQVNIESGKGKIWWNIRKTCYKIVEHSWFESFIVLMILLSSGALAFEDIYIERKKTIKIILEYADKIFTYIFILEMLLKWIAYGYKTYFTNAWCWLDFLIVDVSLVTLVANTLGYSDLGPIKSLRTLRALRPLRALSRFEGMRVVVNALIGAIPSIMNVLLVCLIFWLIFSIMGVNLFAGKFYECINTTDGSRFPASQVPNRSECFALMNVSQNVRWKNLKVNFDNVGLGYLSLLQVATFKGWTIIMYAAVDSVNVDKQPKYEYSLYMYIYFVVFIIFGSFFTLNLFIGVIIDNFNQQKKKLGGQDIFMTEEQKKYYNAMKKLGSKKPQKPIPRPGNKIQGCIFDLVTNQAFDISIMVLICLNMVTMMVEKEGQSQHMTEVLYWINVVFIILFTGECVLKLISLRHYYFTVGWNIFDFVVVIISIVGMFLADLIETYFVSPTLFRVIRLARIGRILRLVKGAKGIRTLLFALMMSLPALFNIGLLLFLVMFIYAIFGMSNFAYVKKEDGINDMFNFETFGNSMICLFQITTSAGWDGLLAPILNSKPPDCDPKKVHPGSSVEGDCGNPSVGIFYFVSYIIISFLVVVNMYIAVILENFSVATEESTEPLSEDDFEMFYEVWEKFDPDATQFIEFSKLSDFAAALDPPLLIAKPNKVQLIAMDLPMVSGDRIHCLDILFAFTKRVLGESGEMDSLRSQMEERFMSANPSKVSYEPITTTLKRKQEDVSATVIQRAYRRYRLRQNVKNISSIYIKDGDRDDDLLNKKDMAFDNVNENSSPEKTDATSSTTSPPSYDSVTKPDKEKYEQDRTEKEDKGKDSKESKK

Sequence of hNav1.5 (Q14524 whole entry, looked up): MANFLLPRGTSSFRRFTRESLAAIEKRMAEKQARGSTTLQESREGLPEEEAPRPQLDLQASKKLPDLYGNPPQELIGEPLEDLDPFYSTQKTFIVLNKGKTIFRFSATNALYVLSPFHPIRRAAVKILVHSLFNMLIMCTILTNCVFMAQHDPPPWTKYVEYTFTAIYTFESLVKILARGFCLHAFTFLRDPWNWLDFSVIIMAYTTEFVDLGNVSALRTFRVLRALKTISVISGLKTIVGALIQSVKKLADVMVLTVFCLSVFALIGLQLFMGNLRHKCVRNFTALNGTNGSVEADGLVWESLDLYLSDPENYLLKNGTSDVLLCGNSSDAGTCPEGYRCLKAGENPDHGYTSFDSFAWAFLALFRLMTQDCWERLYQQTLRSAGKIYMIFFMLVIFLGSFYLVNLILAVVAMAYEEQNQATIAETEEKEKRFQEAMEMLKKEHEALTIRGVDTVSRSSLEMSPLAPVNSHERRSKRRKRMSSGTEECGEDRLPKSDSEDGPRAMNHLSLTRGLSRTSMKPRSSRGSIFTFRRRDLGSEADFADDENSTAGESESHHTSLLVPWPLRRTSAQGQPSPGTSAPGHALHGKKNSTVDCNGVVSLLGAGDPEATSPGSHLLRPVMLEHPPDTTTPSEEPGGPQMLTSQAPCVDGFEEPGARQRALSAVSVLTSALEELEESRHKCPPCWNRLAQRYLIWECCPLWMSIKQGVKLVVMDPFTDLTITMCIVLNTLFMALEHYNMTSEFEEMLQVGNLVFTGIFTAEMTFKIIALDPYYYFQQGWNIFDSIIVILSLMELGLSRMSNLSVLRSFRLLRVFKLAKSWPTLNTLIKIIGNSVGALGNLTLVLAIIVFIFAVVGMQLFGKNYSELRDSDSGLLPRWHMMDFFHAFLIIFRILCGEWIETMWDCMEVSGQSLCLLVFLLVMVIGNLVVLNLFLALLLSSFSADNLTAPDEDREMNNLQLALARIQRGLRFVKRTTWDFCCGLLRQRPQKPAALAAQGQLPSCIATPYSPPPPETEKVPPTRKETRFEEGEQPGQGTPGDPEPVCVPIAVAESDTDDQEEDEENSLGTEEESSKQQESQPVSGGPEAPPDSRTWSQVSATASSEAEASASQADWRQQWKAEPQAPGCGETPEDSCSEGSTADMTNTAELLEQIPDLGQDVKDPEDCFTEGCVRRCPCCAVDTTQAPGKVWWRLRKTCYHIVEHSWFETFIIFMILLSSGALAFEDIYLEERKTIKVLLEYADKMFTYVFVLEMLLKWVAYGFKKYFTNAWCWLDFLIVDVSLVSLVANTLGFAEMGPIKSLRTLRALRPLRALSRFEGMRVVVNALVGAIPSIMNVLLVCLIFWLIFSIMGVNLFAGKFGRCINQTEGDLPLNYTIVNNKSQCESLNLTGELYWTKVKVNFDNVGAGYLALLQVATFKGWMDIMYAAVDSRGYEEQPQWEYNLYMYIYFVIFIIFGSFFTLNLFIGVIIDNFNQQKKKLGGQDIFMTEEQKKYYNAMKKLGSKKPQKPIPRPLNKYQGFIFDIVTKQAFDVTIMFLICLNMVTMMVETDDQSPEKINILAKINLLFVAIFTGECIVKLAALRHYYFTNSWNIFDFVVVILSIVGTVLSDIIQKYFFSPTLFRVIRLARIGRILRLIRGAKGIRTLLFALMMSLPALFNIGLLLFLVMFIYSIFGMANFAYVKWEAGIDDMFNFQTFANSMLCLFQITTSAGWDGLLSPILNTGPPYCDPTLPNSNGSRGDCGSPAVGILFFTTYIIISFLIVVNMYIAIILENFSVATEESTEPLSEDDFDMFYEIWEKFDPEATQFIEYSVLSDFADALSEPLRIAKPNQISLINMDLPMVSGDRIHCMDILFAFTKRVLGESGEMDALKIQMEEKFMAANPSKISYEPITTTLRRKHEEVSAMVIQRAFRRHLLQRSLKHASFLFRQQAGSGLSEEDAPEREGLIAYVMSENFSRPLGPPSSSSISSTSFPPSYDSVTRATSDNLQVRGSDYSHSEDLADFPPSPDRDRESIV

| SMILES | IC50 (hNav1.5) | IC50 (hNav1.7) |
| --- | --- | --- |
| CC[C@H](C)[C@@H]1NC(=O)[C@@H]2CSSC[C@@H]3NC(=O)[C@H](Cc4ccccn4)NC(=O)[C@H](CC(C)C)NC(=O)[C@H](CC(N)=O)NC(=O)[C@@H]4CCCN4C(=O)[C@H](CCCNC(=N)N)NC(=O)[C@H](CSSC[C@H](NC(=O)[C@@H](N)CC(=O)O)C(=O)N[C@@H](CC(C)C)C(=O)NCC(=O)N[C@@H](Cc4ccccc4)C(=O)N[C@@H](CCSC)C(=O)N[C@@H](CCCNC(=N)N)C(=O)N[C@@H](CCCCN)C(=O)N2)NC(=O)[C@H](CSSC[C@@H](C(=O)N[C@@H](CCCCN)C(=O)N[C@@H](Cc2ccc(O)cc2)C(=O)N[C@H](C(=O)N[C@@H](Cc2ccccc2)C(N)=O)C(C)C)NC(=O)[C@H](Cc2c[nH]c4ccccc24)NC(=O)[C@H](CCCCN)NC(=O)[C@H](Cc2c[nH]cn2)NC(=O)[C@H]([C@@H](C)O)NC(=O)[C@H](CCCNC(=N)N)NC(=O)[C@H](CO)NC3=O)NC(=O)[C@H](CCCCN)NC(=O)[C@H](CC(=O)O)NC(=O)[C@H](CC(N)=O)NC(=O)[C@H](CC(=O)O)NC(=O)[C@@H]2CCCN2C1=O [[2PAL22]GpTx-1(1-34)] (H-DCLGFMRKCIPDNDKCCRPNL[2Pal]CSRTHKWCKYVF-NH2; disulfide 2-17, 9-23, 16-30) | 16 µM | 7 nM |
| CC[C@H](C)[C@@H]1NC(=O)[C@@H]2CSSC[C@@H]3NC(=O)[C@H](C(C)C)NC(=O)[C@H](CC(C)C)NC(=O)[C@H](CC(N)=O)NC(=O)[C@@H]4CCCN4C(=O)[C@H](CCCNC(=N)N)NC(=O)[C@H](CSSC[C@H](NC(=O)[C@@H](N)CC(=O)O)C(=O)N[C@@H](CC(C)C)C(=O)NCC(=O)N[C@@H](C)C(=O)N[C@@H](CCSC)C(=O)N[C@@H](CCCNC(=N)N)C(=O)N[C@@H](CCCCN)C(=O)N2)NC(=O)[C@H](CSSC[C@@H](C(=O)N[C@@H](CCCCN)C(=O)N[C@@H](Cc2ccc(O)cc2)C(=O)N[C@H](C(=O)N[C@@H](Cc2ccccc2)C(N)=O)C(C)C)NC(=O)[C@H](Cc2c[nH]c4ccccc24)NC(=O)[C@H](CCCNC(=N)NC)NC(=O)[C@H](Cc2c[nH]cn2)NC(=O)[C@H]([C@@H](C)O)NC(=O)[C@H](CCCNC(=N)N)NC(=O)[C@H](CO)NC3=O)NC(=O)[C@H](CCCCN)NC(=O)[C@H](CC(=O)O)NC(=O)[C@H](CC(N)=O)NC(=O)[C@H](CC(=O)O)NC(=O)[C@@H]2CCCN2C1=O [[Ala5;R(Me)28]GpTx-1(1-34)] (H-DCLGAMRKCIPDNDKCCRPNLVCSRTH[Arg(Me)]WCKYVF-NH2; disulfide 2-17, 9-23, 16-30) | > 10 µM | 51 nM |
| CC[C@H](C)[C@@H]1NC(=O)[C@@H]2CSSC[C@@H]3NC(=O)[C@H](C(C)C)NC(=O)[C@H](CC(C)C)NC(=O)[C@H](CC(N)=O)NC(=O)[C@@H]4CCCN4C(=O)[C@H](CCCCN)NC(=O)[C@H](CSSC[C@H](NC(=O)[C@@H](N)CC(=O)O)C(=O)N[C@@H](CC(C)C)C(=O)NCC(=O)N[C@@H](Cc4ccccc4)C(=O)N[C@@H](CCSC)C(=O)N[C@@H](CCCNC(=N)N)C(=O)N[C@@H](CCCCN)C(=O)N2)NC(=O)[C@H](CSSC[C@@H](C(=O)N[C@@H](CCCCN)C(=O)N[C@@H](Cc2ccc(O)cc2)C(=O)N[C@H](C(=O)N[C@@H](Cc2ccccc2)C(N)=O)C(C)C)NC(=O)[C@H](Cc2c[nH]c4ccccc24)NC(=O)[C@H](CCCCN)NC(=O)[C@H](Cc2cnc[nH]2)NC(=O)[C@H]([C@@H](C)O)NC(=O)[C@H](CCCNC(=N)N)NC(=O)[C@H](CO)NC3=O)NC(=O)[C@H](CCCCN)NC(=O)[C@H](CC(=O)O)NC(=O)[C@H](CC(N)=O)NC(=O)[C@H](CC(=O)O)NC(=O)[C@@H]2CCCN2C1=O [[Lys18]GpTx-1(1-34)] (H-DCLGFMRKCIPDNDKCCKPNLVCSRTHKWCKYVF-NH2; disulfide 2-17, 9-23, 16-30) | 16.4 µM | 2 nM |
| CSCC[C@@H]1NC(=O)[C@H](C(C)C)NC(=O)CNC(=O)[C@H](CC(C)C)NC(=O)[C@@H](NC(=O)[C@@H](N)CC(=O)O)CSSC[C@@H]2NC(=O)[C@@H]3CSSC[C@@H](C(=O)N[C@@H](CCCCN)C(=O)N[C@@H](Cc4ccc(O)cc4)C(=O)N[C@H](C(=O)N[C@@H](Cc4ccccc4)C(N)=O)C(C)C)NC(=O)[C@H](Cc4c[nH]c5ccccc45)NC(=O)[C@H](CCCCN)NC(=O)[C@H](Cc4c[nH]cn4)NC(=O)[C@H]([C@@H](C)O)NC(=O)[C@H](CCCNC(=N)N)NC(=O)[C@H](CO)NC(=O)[C@H](CSSC[C@H](NC(=O)[C@H](CCCCN)NC(=O)[C@H](CCCNC(=N)N)NC1=O)C(=O)N[C@@H](CC(=O)O)C(=O)N1CCC[C@H]1C(=O)N[C@@H](CC(=O)O)C(=O)N[C@@H](CC(N)=O)C(=O)N[C@@H](CC(=O)O)C(=O)N[C@@H](CCCCN)C(=O)N3)NC(=O)[C@H](C(C)C)NC(=O)[C@H](CC(C)C)NC(=O)[C@H](CC(N)=O)NC(=O)[C@@H]1CCCN1C(=O)[C@H](CCCNC(=N)N)NC2=O [[Val5;Asp10]GpTx-1(1-34)] (H-DCLGVMRKCDPDNDKCCRPNLVCSRTHKWCKYVF-NH2; disulfide 2-17, 9-23, 16-30) | > 10 µM | 174 nM |
| CC[C@H](C)[C@@H]1NC(=O)[C@@H]2CSSC[C@@H]3NC(=O)[C@H](C(C)C)NC(=O)[C@H](CC(C)C)NC(=O)[C@H](CC(N)=O)NC(=O)[C@@H]4CCCN4C(=O)[C@H](CCCNC(=N)N)NC(=O)[C@H](CSSC[C@H](NC(=O)[C@@H](N)CC(=O)O)C(=O)N[C@@H](CC(C)C)C(=O)NCC(=O)N[C@@H](C)C(=O)N[C@@H](CCSC)C(=O)N[C@@H](CCCNC(=N)N)C(=O)N[C@@H](CCCCN)C(=O)N2)NC(=O)[C@H](CSSC[C@@H](C(=O)N[C@@H](CCCCN)C(=O)N[C@@H](Cc2ccc(O)cc2)C(=O)N[C@H](C(=O)N[C@@H](Cc2ccccc2)C(N)=O)C(C)C)NC(=O)[C@H](Cc2c[nH]c4ccccc24)NC(=O)[C@H](Cc2c[nH]cn2)NC(=O)[C@H](Cc2c[nH]cn2)NC(=O)[C@H]([C@@H](C)O)NC(=O)[C@H](CCCNC(=N)N)NC(=O)[C@H](CO)NC3=O)NC(=O)[C@H](CCCCN)NC(=O)[C@H](CC(=O)O)NC(=O)[C@H](CC(N)=O)NC(=O)[C@H](CC(=O)O)NC(=O)[C@@H]2CCCN2C1=O [[Ala5;His28]GpTx-1(1-34)] (H-DCLGAMRKCIPDNDKCCRPNLVCSRTHHWCKYVF-NH2; disulfide 2-17, 9-23, 16-30) | > 10 µM | 26 nM |
| C#CC[C@@H]1NC(=O)[C@H](CC(=O)O)NC(=O)[C@@H]2CCCN2C(=O)[C@H](CCC(=O)O)NC(=O)[C@@H]2CSSC[C@@H]3NC(=O)[C@H](C(C)C)NC(=O)[C@H](CC(C)C)NC(=O)[C@H](CC(N)=O)NC(=O)[C@@H]4CCCN4C(=O)[C@H](CCCNC(=N)N)NC(=O)[C@H](CSSC[C@H](NC(=O)[C@@H](N)CC(=O)O)C(=O)N[C@@H](CC(C)C)C(=O)NCC(=O)N[C@@H](C)C(=O)N[C@@H](Cc4ccccc4)C(=O)N[C@@H](CCCNC(=N)N)C(=O)N[C@@H](CCCCN)C(=O)N2)NC(=O)[C@H](CSSC[C@@H](C(=O)N[C@@H](CCCCN)C(=O)N[C@@H](Cc2ccc(O)cc2)C(=O)N[C@H](C(=O)N[C@@H](Cc2ccccc2)C(N)=O)C(C)C)NC(=O)[C@H](Cc2c[nH]c4ccccc24)NC(=O)[C@H](CCCNC(=N)N)NC(=O)[C@H](Cc2c[nH]cn2)NC(=O)[C@H](CC(C)C)NC(=O)[C@H](CCCNC(=N)N)NC(=O)[C@H](CO)NC3=O)NC(=O)[C@H](CCCCN)NC(=O)[C@H](CC(=O)O)NC1=O (H-DCLGAFRKCEPD[Pra]DKCCRPNLVCSRLHRWCKYVF-NH2; disulfide 2-17, 9-23, 16-30) | 15.3 µM | 12 nM |
| CC[C@H](C)[C@@H]1NC(=O)[C@@H]2CSSC[C@@H]3NC(=O)[C@H](C(C)C)NC(=O)[C@H](CC(C)C)NC(=O)[C@H](CC(N)=O)NC(=O)[C@@H]4CCCN4C(=O)[C@H](CCCNC(=N)N)NC(=O)[C@H](CSSC[C@H](NC(=O)[C@@H](N)CC(=O)O)C(=O)N[C@@H](CC(C)C)C(=O)NCC(=O)N[C@@H](Cc4ccccc4)C(=O)N[C@@H](CCSC)C(=O)N[C@@H](CCCNC(=N)N)C(=O)N[C@@H](CCCCN)C(=O)N2)NC(=O)[C@H](CSSC[C@@H](C(=O)N[C@@H](CCCCN)C(=O)N[C@@H](Cc2ccc(O)cc2)C(=O)N[C@H](C(=O)N[C@@H](Cc2ccccc2)C(N)=O)C(C)C)NC(=O)[C@H](Cc2c[nH]c4ccccc24)NC(=O)[C@H](CCCCN)NC(=O)[C@H](Cc2c[nH]cn2)NC(=O)[C@H](Cc2ccc(C(=O)O)cc2)NC(=O)[C@H](CCCNC(=N)N)NC(=O)[C@H](CO)NC3=O)NC(=O)[C@H](CCCCN)NC(=O)[C@H](CC(=O)O)NC(=O)[C@H](CC(N)=O)NC(=O)[C@H](CC(=O)O)NC(=O)[C@@H]2CCCN2C1=O [[4CO2-F26]GpTx-1(1-34)] (H-DCLGFMRKCIPDNDKCCRPNLVCSR[Phe(4-COOH)]HKWCKYVF-NH2; disulfide 2-17, 9-23, 16-30) | > 10 µM | 65 nM |
| CC[C@H](C)[C@@H]1NC(=O)[C@@H]2CSSC[C@@H]3NC(=O)[C@H](C(C)C)NC(=O)[C@H](CC(C)C)NC(=O)[C@H](CC(N)=O)NC(=O)[C@@H]4CCCN4C(=O)[C@H](CCCNC(=N)N)NC(=O)[C@H](CSSC[C@H](NC(=O)[C@@H](N)CC(=O)O)C(=O)N[C@@H](CC(C)C)C(=O)NCC(=O)N[C@@H](C(C)C)C(=O)N[C@@H](CC(C)C)C(=O)N[C@@H](CCCNC(=N)N)C(=O)N[C@@H](CCCCN)C(=O)N2)NC(=O)[C@H](CSSC[C@@H](C(=O)N[C@@H](CCCCN)C(=O)N[C@@H](Cc2ccc(O)cc2)C(=O)N[C@H](C(=O)N[C@@H](Cc2ccccc2)C(N)=O)C(C)C)NC(=O)[C@H](Cc2c[nH]c4ccccc24)NC(=O)[C@H](CCCCN)NC(=O)[C@H](Cc2c[nH]cn2)NC(=O)[C@H]([C@@H](C)O)NC(=O)[C@H](CCCNC(=N)N)NC(=O)[C@H](CO)NC3=O)NC(=O)[C@H](CCCCN)NC(=O)[C@H](CC(=O)O)NC(=O)[C@H](CC(N)=O)NC(=O)[C@H](CC(=O)O)NC(=O)[C@@H]2CCCN2C1=O [[Val5;Leu6]GpTx-1(1-34)] (H-DCLGVLRKCIPDNDKCCRPNLVCSRTHKWCKYVF-NH2; disulfide 2-17, 9-23, 16-30) | > 10 µM | 200 nM |

— patent publication US9340590B2 (priority 2011, dated 2016)
